These results are taken from US12679839B2, “Cyclin-dependent kinase 7 (CDK7) non-covalent inhibitors” (JANSSEN PHARMACEUTICA NV, priority 2020, dated 2026).

A value given as a limit tells only on which side of the number the result lay.

This experiment deals with RNA polymerase II Serine 5 phosphorylation (Rpb1 CTD), downstream substrate of CDK7. Put plainly: Imaging-based cellular RNA PolII Ser5 phosphorylation assay in A549 cells. The class given is cell-based, human. To be noted: Homo sapiens, A549, 3 h, challenged with compound for 3 hours, read-out: pRNA polII Ser5 (A549) pIC50 (converted). The method in brief:
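A549 cells seeded 20 h in DMEM with 1% FBS, then exposed to compound for 3 h at 37 °C; fixed, methanol-permeabilized and immunostained for phospho-Rpb1 CTD Ser5, read by automated imaging. Signal normalized to DMSO (high) and 10 μM LDC4297 (low) controls; IC50 from four-parameter fit of % control vs concentration.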
With `C[C@@H]1Cc2cnc(NC3CCOCC3)nc2[C@H](C)N1C(=O)[C@H]1CCN(C)C[C@@H]1c1ccccc1` (single isomer, unassigned) [Compound 195b], the IC50 is 72.4 nM.
With `C[C@@H]1Cc2cnc(N[C@H]3CCOC(C)(C)C3)nc2CN1C(=O)[C@H]1CCN(C)C[C@@H]1c1ccccc1` (relative stereo) [Compound 39] the figure was 398 nM.
As to `C[C@@H]1Cc2cnc(NCc3ccccc3)nc2CN1C(=O)[C@@H]1CCN(C)C[C@H]1C(F)(F)F` (relative stereo) [Compound 141], the IC50 was greater than 10000 nM.
Turning to `CO[C@H]1CC[C@H](Nc2ncc3c(n2)CN(C(=O)[C@@H]2CCN(C)C[C@H]2c2ccnc(C)c2)[C@H](C)C3)CC1` (relative stereo) [Compound 105], the IC50 is 407 nM.
For `Cc1cc([C@@H]2CN(C)CC[C@H]2C(=O)N2Cc3nc(NC4CCOCC4)ncc3C[C@H]2C)ccn1` (relative stereo) [Compound 102], the IC50 is 1700 nM.
On to `C[C@H]1CN(C(=O)[C@H]2CCN(C)C[C@@H]2c2ccccc2)[C@@H](C)c2nc(NC3CCOCC3)ncc21` (relative stereo) [Compound 181], for which the IC50 was 2510 nM.
On to `[2H]C([2H])([2H])N1CC[C@@H](C(=O)N2Cc3nc(NCc4ccn(C)n4)ncc3C[C@H]2C)[C@H](c2cccc(C)c2)C1` (single isomer, unassigned) [Compound 148], for which the IC50 was roughly 26.9 nM.
With `C[C@@H]1Cc2cnc(NC3CCOCC3)nc2CN1C(=O)[C@H]1CCN(C)C[C@@H]1c1ccc(Cl)cc1` (relative stereo) [Compound 132] the figure was roughly 81.3 nM.
Take `C[C@@H]1Cc2cnc(NCc3ccn(C)n3)nc2CN1C(=O)[C@H]1CCN(C)C[C@@H]1c1ccccc1C(F)F` (relative stereo) [Compound 139]: the IC50 was 1260 nM.
Take `C[C@@H]1Cc2cnc(N[C@H]3CCCNC3)nc2CN1C(=O)[C@H]1CCN(C)C[C@@H]1C(F)(F)F` (relative stereo) [Compound 144]: the IC50 is 759 nM.
On to `C[C@@H]1CN(C(=O)[C@H]2CCN(C)C[C@@H]2c2ccccc2)Cc2nc(NC3CCOCC3)ncc21` (relative stereo) [Compound 188], for which the IC50 is 105 nM.
`[2H]C([2H])([2H])N1CC[C@H](C(=O)N2Cc3nc(NCc4ccccc4)ncc3C[C@H]2C)[C@@H](c2ccccc2)C1` (single isomer, unassigned) [Compound 154]: the IC50 is 129 nM.
In the case of `CC1CN(C(=O)[C@H]2CCN(C)C[C@@H]2c2ccccc2)Cc2nc(Nc3cnn(C)c3)ncc21` (mixture of isomers) [Compound 194], the IC50 was 110 nM.
Consider `C[C@@H]1Cc2cnc(NC3CCOCC3)nc2CN1C(=O)[C@H]1CCN(C)C[C@@H]1C` (relative stereo) [Compound 146], for which the IC50 is 692 nM.
Consider `CN1CC[C@H](C(=O)N2Cc3nc(NC4CCOCC4)ncc3CC2(C)C)[C@@H](c2ccccc2)C1` (relative stereo) [Compound 189], for which the IC50 was 1020 nM.
For `C[C@@H]1CN(C)CC[C@H]1C(=O)N1Cc2nc(NC3CCOCC3)ncc2C[C@H]1C` (relative stereo) [Compound 145], the IC50 was 2950 nM.
As for `Cc1cccc([C@H]2CN(C)CC[C@@H]2C(=O)N2Cc3nc(NC4CCOCC4)ncc3C[C@H]2C)c1` (relative stereo) [Compound 134], the IC50 was roughly 67.6 nM.
With `C[C@@H]1Cc2cnc(NCc3ccn(C)n3)nc2CN1C(=O)[C@H]1CCN(C)C[C@@H]1C(F)(F)F` (relative stereo) [Compound 143] the figure was 2570 nM.
Regarding `Cc1cccc([C@@H]2CN(C)CC[C@H]2C(=O)N2Cc3nc(NCc4ccn(C)n4)ncc3C[C@H]2C)c1` (relative stereo) [Compound 136], the IC50 was roughly 27.5 nM.
On to `C[C@@H]1Cc2cnc(NC3CCOCC3)nc2CN1C(=O)[C@H]1CCN(C)C[C@@H]1c1cccc(F)c1` (relative stereo) [Compound 133], for which the IC50 is 97.7 nM.
For `C[C@@H]1Cc2cnc(N[C@@H]3CCC(=O)N(C)C3)nc2CN1C(=O)[C@H]1CCN(C)C[C@@H]1c1ccccc1` (relative stereo) [Compound 6], the IC50 was 832 nM.
`C[C@@H]1Cc2cnc(NCc3ccn(C)n3)nc2CN1C(=O)[C@H]1CCN(C)C[C@@H]1c1cccc(C(F)(F)F)c1` (relative stereo) [Compound 129]: the IC50 was roughly 41.7 nM.
